Earlier results, collected in patent publication US8034370B2, “Ocular implant made by a double extrusion process” (Allergan, Inc., priority 2003, dated 2011).
Read-outs that look alike come from different tables or passages of the source.

What was measured:
[1] = after topical administration
[2] = in vivo efficacy

| Solubility (Ethanol) | Solubility (Methylene chloride) | Solubility (Water) | fraction reaching the anterior segment [1] | Compound | potency relative to dexamethasone [2] |
| --- | --- | --- | --- | --- | --- |
| Ethanol: Sparingly soluble | Methylene chloride: slightly soluble | Water: practically insoluble | about 1% | C[C@@H]1C[C@H]2[C@@H]3CCC4=CC(=O)C=C[C@]4(C)[C@@]3(F)[C@@H](O)C[C@]2(C)[C@@]1(O)C(=O)CO [Dexamethasone, pregna-1,4-diene-3,20-dione-9-fluoro-11,17,21-trihydroxy-16-methyl-, (11β,16α)] | – |
| – | – | – | – | C[C@]12CCC(=O)C=C1CC[C@@H]1[C@@H]2[C@@H](O)C[C@@]2(C)[C@H]1CC[C@]2(O)C(=O)CO [hydrocortisone] | approximately twenty five |
